Non-standard residues stand in square brackets, D forms with d. Residues, ends and D or L forms follow the SMILES beside them. *: point of attachment. AFC = O=c1cc(C(F)(F)F)c2ccc(N*)cc2o1; AMC = Cc1cc(=O)oc2cc(N*)ccc12
Test system: plasma proteases

Compound	Cleavage / fluorescence in plasma in the absence of LF	Hydrolysis in plasma without LF	Specificity for LF
CC(=O)N[C@H](CCCNC(=N)N)C(=O)N[C@H](CCCNC(=N)N)C(=O)N[C@H](CCCCN)C(=O)N[C@H](CCCCN)C(=O)N[C@H](C(=O)N[C@@H](Cc1ccc(O)cc1)C(=O)N1CCC[C@H]1C(=O)Nc1ccc2c(C)cc(=O)oc2c1)C(C)C [LBL 10097] (Ac-[dR][dR][dK][dK]VYP-{AMC})	minimal increase in hydrolysis	minimal increase in hydrolysis	specific for LF
CC(=O)N[C@@H](CCCNC(=N)N)C(=O)N[C@H](CCCNC(=N)N)C(=O)N[C@H](CCCCN)C(=O)N[C@H](CCCCN)C(=O)N[C@H](C(=O)N[C@@H](Cc1ccc(O)cc1)C(=O)N1CCC[C@H]1C(=O)Nc1ccc2c(C)cc(=O)oc2c1)C(C)C [LBL 10081] (Ac-R[dR][dK][dK]VYP-{AMC})	minimal increase in hydrolysis	minimal increase in hydrolysis	specific for LF
CC(=O)N[C@@H](CCCNC(=N)N)C(=O)N[C@H](CCCNC(=N)N)C(=O)N[C@H](CCCCN)C(=O)N[C@H](CCCCN)C(=O)N[C@H](C(=O)N[C@@H](Cc1ccc(O)cc1)C(=O)N1CCC[C@H]1C(=O)Nc1ccc2c(C(F)(F)F)cc(=O)oc2c1)C(C)C [LBL 10108] (Ac-R[dR][dK][dK]VYP-{AFC})	neither peptide was cleaved	–	–
CC(=O)N[C@@H](CCCNC(=N)N)C(=O)N[C@@H](CCCNC(=N)N)C(=O)N[C@@H](CCCCN)C(=O)N[C@@H](CCCCN)C(=O)N[C@H](C(=O)N[C@@H](Cc1ccc(O)cc1)C(=O)N1CCC[C@H]1C(=O)Nc1ccc2c(C)cc(=O)oc2c1)C(C)C [LBL 10079] (Ac-RRKKVYP-{AMC})	dramatic increase in fluorescence	–	non-specifically cleaved by plasma proteases

From patent US9932570B2 (priority 2015, dated 2018)
